Test [1] can be described thus: Inhibitory activity on the proliferation of Human colon carcinoma […] cancer cells using MTT or sulforhodamine B assay. The following applies: Cancer cell lines. The format is functional, cell-based. For orientation: In SRB staining, fixed cells bind dye roughly in proportion to their protein.
The test system of test [2] is A549. Put plainly: Effect of compound on cell cycle progression in Human lung A549 cancer cells at S phase after 8 hours of administration. Type of test: functional.
Test [3] has as its system A549. Nature of the test: Effect of compound on cell cycle progression in Human lung A549 cancer cells at S phase after 16 hours of administration. Type of test: functional.
Test [4] relates to A549. Put plainly: Effect of compound on cell cycle progression in Human lung A549 cancer cells at G0/G1 phase after 16 hours of administration. Type of test: functional.
The subject of test [5] is A549. Put plainly: Effect of compound on cell cycle progression in Human lung A549 cancer cells at G0/G1 phase after 8 hours of administration. Type of test: functional.
The next test relates to HT-1080. Put plainly: Inhibitory activity on the proliferation of Human fibrosarcoma HT1080 cancer cells using MTT or sulforhodamine B assay. Type of test: functional, cell-based.
Test [6] relates to A549. Nature of the test: Effect of compound on cell cycle progression in Human lung A549 cancer cells at G2/M phase after 8 hours of administration. The format is functional.
The subject of test [7] is A549. Put plainly: Effect of compound on cell cycle progression in Human lung A549 cancer cells at Sub-G0 phase after 8 hours of administration. Type of test: functional.
The test system of test [8] is A549. Nature of the test: Effect of compound on cell cycle progression in Human lung A549 cancer cells at G0/G1 phase after 24 hours of administration. Type of test: functional.
Test [9] relates to A549. Put plainly: Effect of compound on cell cycle progression in Human lung A549 cancer cells at Sub-G0 phase after 24 hours of administration. The format is functional.
For test [10], the system named is A549. Put plainly: Effect of compound on cell cycle progression in Human lung A549 cancer cells at G2/M phase after 16 hours of administration. The format is functional.
Test [11] concerns A549. Nature of the test: Effect of compound on cell cycle progression in Human lung A549 cancer cells at G2/M phase after 24 hours of administration. Type of test: functional.
Test [12] deals with A549. Put plainly: Effect of compound on cell cycle progression in Human lung A549 cancer cells at S phase after 24 hours of administration. The format is functional.
The test system of test [13] is A549. Put plainly: Inhibitory activity on the proliferation of Human lung carcinoma A549 cancer cells using MTT or sulforhodamine B assay. Type of test: functional, cell-based.
For another test, the system named is HL-60. Nature of the test: Inhibitory activity on the proliferation of Human myeloid leukemia HL-60 cancer cells using MTT or sulforhodamine B assay. Type of test: functional, cell-based.
The test system of test [14] is A549. Nature of the test: Effect of compound on cell cycle progression in Human lung A549 cancer cells at Sub-G0 phase after 16 hours of administration. The format is functional.

Molecules are shown by their SMILES.

In the case of `O=Nc1c(-c2c(O)[nH]c3ccc([N+](=O)[O-])cc23)[nH]c2ccccc12`, the IC50 (commonly the concentration that gives 50% inhibition) worked out at 25.5 µM in test [1], 5.9 µM in the test on HT-1080, 5.4 µM in the test on A549 [13] and 9.2 µM with HL-60. Also, the Activity with A549 [2] is 26.8%; in the test with A549 [3] it was 31.8%; in the test with A549 [4], 46.5%; with A549 [5], 46.1%; in the test on A549 [6], 27.1%; with A549 [7], 0%. The Activity in the test on A549 [8] is recorded as 39.9%; in the test on A549 [9] it was 22%; in the test on A549 [10], 21.7%; in the test with A549 [11], 22%; in the test with A549 [12], 16.1%; in the test on A549 [14], 0%.

Take `O=Nc1c(-c2c(O)[nH]c3ccccc23)[nH]c2ccccc12` [INDIRUBIN-3-MONOXIME]: the IC50 was > 100 µM in [1], 4.8 µM in the test with HT-1080, 62 µM with A549 [13] and > 100 µM in the test on HL-60.

For the compound `O=C1C(c2c(O)[nH]c3ccc(S(=O)(=O)O)cc23)=Nc2ccccc21`, the IC50 (in [1]; in the test with HT-1080; in the test on A549 [13]; in the test on HL-60) was > 100 µM each time.

In the case of `O=C1Nc2ccccc2/C1=C1/Nc2ccccc2C1=O` [INDIRUBIN], the IC50 in [1] was > 100 µM; with HT-1080 it was 42.2 µM; in the test with A549 [13], 31 µM; in the test on HL-60, > 100 µM.

Source of the values: ChEMBL document CHEMBL1140278, “Induction of apoptosis by a novel indirubin-5-nitro-3'-monoxime, a CDK inhibitor, in human lung cancer cells” (Bioorg Med Chem Lett, 2005).
